System: HIF1 responsive luciferase reporter in RKO cells
Experiment: 5×HRE-luciferase reporter assay in vitro
Assay type: cell-based, human
Conditions: 0.5% O2 24 h, increasing concentrations, dose dependent
Procedure: FIG. 8. Increasing oxygen consumption by inhibition of PDK activity increases tumor hypoxia. (a) Luciferase activity of wildtype and HIF1α knockdown RKO cells stably transfected with a HIF1 responsive luciferase reporter gene. Cells were exposed to 0.5% O2 for 24 hours in triplicate. Luminescence is normalized to normoxic HIF wildtype cells. (b) Luciferase activity of wildtype RKO HIF1 reporter cells exposed to 0.5% O2 for 24 hours in the presence of increasing concentrations of echinomycin. Data are normalized to the increase in signal observed in the absence of drug. (c) Bioluminescent imaging in vivo. Images show a representative animal bearing an RKO reporter tumor on the left flank and an RKOShHIF1α reporter tumor on the right flank as a function of time after ip injection of 50 mg/kg DCA. […] (d) Quantification of in vivo bioluminescence. […] The data represent the mean of three independent experiments, each comprising 5 RKO and 5 RKOShHIF1α reporter tumors.
Luciferase reporter assay. […] Cells were exposed to 0.5% O2 for 24 hr, and luciferase activity was measured in triplicate using a luciferase reporter gene assay kit (Roche) and a Monolight 2010 luminometer (Analytical Luminescence Laboratory). […]

CS[C@H]1SC[C@H]2C(=O)N(C)[C@@H](C(C)C)C(=O)OC[C@@H](NC(=O)c3cnc4ccccc4n3)C(=O)N[C@@H](C)C(=O)N(C)[C@@H]1C(=O)N(C)[C@@H](C(C)C)C(=O)OC[C@@H](NC(=O)c1cnc3ccccc3n1)C(=O)N[C@@H](C)C(=O)N2C [echinomycin]
hypoxic induction of luciferase in RKO reporter cells in vitro: completely inhibited

Reference: patent publication US20070212360A1, “Modulation of mitochondrial oxygen consumption for therapeutic purposes” (priority 2006, published 2007)
